# Results reported in EPA's ToxValDB 9.5.
# Where “and” joins values, the source holds several entries; their conditions need not be identical. Identical values can stand only once.
# How the values were obtained:
# Rattus norvegicus [1] = settings: for LD50 / NOAEL: oral, gavage; for NOAEL: reproduction developmental
# Oryctolagus sp. = settings: acute; dermal; occlusive; New Zealand
# Rattus norvegicus [2] = test: LC0; higher = less toxic; settings: acute
# Cavia porcellus = settings: acute; oral; Guinea Pig
# Microhyla ornata = settings: short-term, whole body
# Rattus norvegicus [3] = settings: developmental, oral, M, generation: F1
# Rattus norvegicus [4] = settings: subchronic, oral, diet, Fischer 344, Body Weight Changes: decrease + Food Consumption: decrease + Hematology: Hct decrease, Hgb decrease, RBC decrease, N-RBC increase, MCV …
# Mus musculus [5] = settings: repeat dose other; oral
# Chalcophaps sp. = settings: oral
# Rattus norvegicus [6] = settings: chronic, oral
# Rattus norvegicus [7] = system: Rattus norvegicus
# Rattus norvegicus [8] = settings: Hershberger, oral, gavage, Sprague-Dawley
# Rattus norvegicus [9] = system: Rattus norvegicus; remark: listed apart in the source
# Mus musculus [10] = system: Mus musculus
# Mus musculus [11] = settings: M/F
# Mus musculus [12] = settings: subchronic; duration: 90 days; oral; gavage; M/F; CD1; hepatic
# Canidae [13] = settings: chronic; duration: 24 months; oral; diet; Dog Other; Kidney: Lesions
# Canidae [14] = settings: chronic; duration: 2 years; oral; diet; M/F; Dog Other; kidney and spleen pathology
# Mus musculus [15] = settings: subchronic; duration: 13 weeks; oral; gavage; M; SPF-ICR
# [16] = gavage, Crl:CD(SD), F1: AGD (mm)
# [17] = subchronic, oral, reduced rbc, packed cell volume and hemoglobin
# [18] = subchronic, inhalation, reduced body weight
# [19] = chronic, inhalation, M/F, nasal epithelial lesions
# [20] = chronic, duration: 104 weeks, oral, diet, reduced hemoglobin and erythrocyte destruction
smiles,measurement,setting,value
Cc1cccnc1 [3-Methylpyridine],LC50,"Rattus norvegicus [1]; acute, inhalation, Sprague-Dawley",< 11.8 mg/mL
same,LD50,"Rattus norvegicus [1]; acute, Fischer 344",630 mg/kg
same,LD50,"Rattus norvegicus [1]; acute, Sprague-Dawley",710 mg/kg
same,LOAEL,"Rattus norvegicus [1]; short-term, duration: 2 weeks, inhalation, Crl:CD(SD) BR",1100 mg/m3
same,LD50,Oryctolagus sp.,≥ 126 mg/kg and ≤ 200 mg/kg
same,LC0,"Rattus norvegicus [2]; inhalation, Crl:CD(SD) BR",≥ 4950 mg/m3 and ≤ 12600 mg/m3
"Nc1ccc(C=Cc2ccc(N)cc2S(=O)(=O)O)c(S(=O)(=O)O)c1 [4,4'-Diamino-2,2'-stilbenedisulfonic acid]",NOAEL,"Rattus norvegicus [1]; Sprague-Dawley, generation: F0",1000 mg/kg-day
same,NOAEL,"Rattus norvegicus [1]; Sprague-Dawley, generation: F1",1000 mg/kg-day
same,LD50,Cavia porcellus,47000 mg/kg
same,LC0,"Rattus norvegicus [2]; oral, Sprague-Dawley",3000 mg/kg
"Cc1cc(C(C)(C)c2cc(C)c(O)c(C)c2)cc(C)c1O [4,4'-Propane-2,2-diylbis(2,6-dimethylphenol)]",LOEL,"Microhyla ornata; duration: 9 day, M/F, DNA fragmentation",1 µM
same,LOEL,"Microhyla ornata; duration: 11 day, EGFP activitiy",1 µM
"CCCCOC(=O)c1ccccc1C(=O)OCCCC [Dibutyl 1,2-benzenedicarboxylate]",NOEL,"Rattus norvegicus [3]; Albino, F1: AGD (units not specified)",50 mg/kg-day
same,LOEL,Rattus norvegicus [3]; [16],500 mg/kg-day
same,NOEL,Rattus norvegicus [3]; [16],100 mg/kg-day
same,NOEL,Rattus norvegicus [4]; F,177 mg/kg-day
same,NOEL,Rattus norvegicus [4]; M/F,< 240 mg/kg-day
same,LOAEL,Mus musculus [5],1830 mg/kg-day
same,NOAEL,Mus musculus [5],550 mg/kg-day
same,LOAEL,Chalcophaps sp.,1.1 mg/kg-day
same,NOAEL,Chalcophaps sp.,0.11 mg/kg-day
same,NOAEL,"Rattus norvegicus [6]; duration: 52 weeks, diet, Whole body: Increased mortality",125 mg/kg-day
same,LOAEL,"Rattus norvegicus [7]; subchronic, oral, M, mortality",600 mg/kg-day
same,NOAEL,"Rattus norvegicus [7]; subchronic, oral, M, mortality",125 mg/kg-day
same,NOEL,"Rattus norvegicus [8]; duration: 5 days, active + Antiandrogenic + anti-androgenic + PPS delayed",500 mg/kg-day
same,NOEL,"Rattus norvegicus [8]; duration: 10 days, active + Antiandrogenic + anti-androgenic + PPS delayed",500 mg/kg-day
same,NOAEL,"Rattus norvegicus [9]; developmental, duration: 9 days, oral, gavage, M/F, Sprague-Dawley, developmental",50 mg/kg-day
c1ccc2c(c1)Cc1ccccc1-2 [Fluorene],NOAEL,"Mus musculus [10]; subchronic, duration: 13 weeks, oral, gavage, Erythrocytes: Decreased counts",125 mg/kg-day
same,LOAEL,Mus musculus [11]; [17],250 mg/kg-day
same,NOAEL,Mus musculus [11]; [17],125 mg/kg-day
same,LOAEL,Mus musculus [12],125 mg/kg-day
CNC(=O)ON=C(C)SC [Methomyl],NOEL,Canidae [13],2.5 mg/kg-day
same,LEL,Canidae [14],10 mg/kg-day
same,NOEL,Canidae [14],2.5 mg/kg-day
same,NOEL,"Rattus norvegicus [8]; duration: 10 days, inactive + Negative + Negative + neither + negative",1 mg/kg-day
P [Phosphine],NOEL,"Rattus norvegicus [6]; duration: 2 years, diet",0.026 mg/kg-day
same,NOAEL,"Mus musculus [10]; subchronic, duration: 13 weeks, inhalation, intermittent, Whole body: Decreased weight",1.4 mg/m3
same,NOEL,"Rattus norvegicus [7]; chronic, oral, M/F, body weight and clinical parameters",0.026 mg/kg-day
same,LOAEL,Mus musculus [11]; [18],6.3 mg/m3
same,NOAEL,Mus musculus [11]; [18],1.4 mg/m3
C=COC(C)=O [Vinyl acetate],NOAEL,"Rattus norvegicus [6]; duration: 2 years, drinking water, Kidney: Altered weight + Whole body: Altered weight",100 mg/kg-day
same,NOAEL,"Mus musculus [10]; chronic, duration: 104 weeks, inhalation, intermittent, Nasal cavity: Lesions",176 mg/m3
same,LOAEL,Rattus norvegicus [7]; [19],704 mg/m3
same,NOAEL,Rattus norvegicus [7]; [19],176 mg/m3
same,NOAEL,"Rattus norvegicus [9]; chronic, duration: 104 weeks, inhalation, whole body, M/F, Crl:CD(SD)BR Sprague-Dawley, respiratory",174 mg/m3
same,NOAEL,"Rattus norvegicus [9]; short-term, duration: 4 weeks, inhalation, whole body, M, Sprague-Dawley (Crl:CD BR), respiratory",703 mg/m3
same,NOAEL,"Rattus norvegicus [9]; short-term, duration: 5 days, inhalation, whole body, M, Sprague-Dawley (Crl:CD BR), respiratory",703 mg/m3
CC(CCl)OC(C)CCl (stereo not given) [bis(2-Chloro-1-methylethyl) ether],LOAEL,Mus musculus [15],9.69 mg/kg-day
same,LOAEL,Mus musculus [11]; [20],198 mg/kg-day
same,NOAEL,Mus musculus [11]; [20],35.8 mg/kg-day
